# According to PMC9034021 (RSC Advances, 2021):
# What was measured:
# [1] = biological target: AChE (from Electrophorus electricus) (Electrophorus electricus, UniProt O42275); experiment: biochemical; assay type: biochemical
# [2] = biological target: BuChE (from equine serum) (Equus caballus, UniProt P81908); experiment: BuChE inhibitory activity, Ellman's method with slight modification; assay type: biochemical
# Chain of BuChE (from equine serum) (P81908 whole entry): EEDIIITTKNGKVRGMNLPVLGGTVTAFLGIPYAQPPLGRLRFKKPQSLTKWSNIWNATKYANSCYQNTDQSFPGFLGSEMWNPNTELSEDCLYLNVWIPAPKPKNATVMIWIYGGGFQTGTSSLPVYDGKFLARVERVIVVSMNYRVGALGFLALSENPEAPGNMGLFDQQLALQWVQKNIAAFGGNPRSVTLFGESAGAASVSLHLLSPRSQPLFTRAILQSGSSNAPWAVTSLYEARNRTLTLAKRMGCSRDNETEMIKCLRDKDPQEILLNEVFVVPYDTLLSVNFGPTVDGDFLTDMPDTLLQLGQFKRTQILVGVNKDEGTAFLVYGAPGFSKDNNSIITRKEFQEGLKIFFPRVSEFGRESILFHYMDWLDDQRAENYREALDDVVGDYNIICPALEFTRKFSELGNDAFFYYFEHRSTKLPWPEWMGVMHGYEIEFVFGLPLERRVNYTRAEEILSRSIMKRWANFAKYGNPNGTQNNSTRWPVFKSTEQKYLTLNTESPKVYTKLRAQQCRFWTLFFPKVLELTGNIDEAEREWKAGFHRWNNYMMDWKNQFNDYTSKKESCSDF
# Chain of AChE (from Electrophorus electricus) (O42275 24-633): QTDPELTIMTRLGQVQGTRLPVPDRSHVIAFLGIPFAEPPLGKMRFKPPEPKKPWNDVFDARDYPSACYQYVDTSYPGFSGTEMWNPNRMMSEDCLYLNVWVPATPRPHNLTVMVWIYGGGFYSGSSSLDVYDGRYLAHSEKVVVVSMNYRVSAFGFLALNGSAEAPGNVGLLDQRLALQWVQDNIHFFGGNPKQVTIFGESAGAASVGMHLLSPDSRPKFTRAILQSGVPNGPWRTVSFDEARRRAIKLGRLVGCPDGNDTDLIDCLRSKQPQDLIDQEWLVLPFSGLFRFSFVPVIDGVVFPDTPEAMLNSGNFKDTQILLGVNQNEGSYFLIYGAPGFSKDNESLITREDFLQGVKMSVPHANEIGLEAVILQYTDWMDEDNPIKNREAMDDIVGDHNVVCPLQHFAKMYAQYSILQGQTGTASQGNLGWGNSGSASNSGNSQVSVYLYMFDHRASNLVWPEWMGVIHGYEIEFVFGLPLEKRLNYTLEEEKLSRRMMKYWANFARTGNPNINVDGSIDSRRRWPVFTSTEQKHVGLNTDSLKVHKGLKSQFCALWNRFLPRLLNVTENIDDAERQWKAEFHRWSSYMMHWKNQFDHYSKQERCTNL
SMILES,IC50 [1],IC50 [2],further results
"COC1=C[C@]23CCN(C)[C@H](Cc4ccc(OC)c(O)c42)C3=CC1=O [Compound 45, salutaridine]",7.49 ± 0.66 µM,,
"CN1CCc2cc3c(c4c2C1Cc1ccccc1-4)OCO3 (stereo not shown) [Compound 22, roemerine]",8.32 ± 0.12 µM,2.85 ± 0.08 µM,"BuChE inhibition, fold more active than galanthamine [2]: approximately 1.3 fold"
"COc1cc2c(cc1OC)-c1c3c(cc4ccnc(c14)C2=O)OCO3 [Compound 35, dicentrinone]",265.8 ± 0.8 µM,,
"COc1cc2c(cc1OC)[C@@H]1Cc3ccc(OC)c(OC)c3CN1CC2 [Compound 14, tetrahydropalmatine]",,65.3 ± 0.8 µM,
"COc1cc2c(cc1O)CC[n+]1cc3c(OC)c(OC)ccc3cc1-2 [Compound 18, jatrorrhizine]",12.3 ± 0.44 µM,31.46 ± 0.2 µM,
"COc1cc2cc3c4c(cc5c(c4c2cc1OC)OCO5)CCN3C [Compound 42, dehydrodicentrine]",,,"anti-BuChE activity, fold increase of the dehydroaporphine ([2]; relative to the aporphine group, comparator not named): 4.7 fold"
"COc1cc2c(cc1O)[C@@H]1Cc3ccc(O)c(OC)c3CN1CC2 [Compound 12, stepholidine]",,221.2 ± 1.62 µM,
"COc1ccc2c(c1OC)CC1c3c(cc4c(c3-2)OCO4)CCN1C (stereo not shown) [Compound 25, crebanine]",17.4 ± 0.22 µM,10.5 ± 0.27 µM,"anti-AChE activity, fold less active than the 9,10-dimethoxy analogue 26 [1]: 2.8 fold; anti-BuChE activity, fold higher than that of 26 [2]: 2.5 fold"
"COc1cc2c(cc1O)C(Cc1ccc(O)cc1)NCC2 (stereo not shown) [Compound 44, coclaurine]",40.9 ± 0.67 µM,20.5 ± 0.42 µM,
